The experiment has as its system human thrombin. Put plainly: kinetic analysis of chromogenic substrate hydrolysis by thrombin. The experiment is classed as biochemical. The following applies: substrate 0.1 M in 0.17 M Tris buffer, pH 7.4; human thrombin 0.63 mg/ml; 37° C.; monitored at 405 nm. The procedure:
The enzyme and the substrate are mixed in a buffer solution, and the reaction is followed spectrophotometrically for 2 to 30 minutes. The concentration of substrate [S] is varied, whereas the enzyme concentration [E] is kept constant. If the extinction (OD) (=optical density) is plotted in a coordinate system as a function of time, a curve is obtained the tangent of which (difference in extinction per minute, Δ OD/minute, from which the quantity in μmoles of pNA/min(v) can be calculated) at time zero corresponds to the initial course of the hydrolysis. By means of this tangent the initial rate of the hydrolysis can be determined.
If l/v is plotted against l/[S], a Lineweaver-Burk diagram is obtained from which vmax and Km can be determined graphically. Thus Km and kcat can be determined.

On to “sarcosylprolylarginine-p-nitrophenylanilide hydrochloride [Sar-Pro-Arg-pNA.2HCl]”, for which the Km (usually the substrate concentration at which the rate is half of its maximum) came to 920 µM and the kcat (as a rule, the maximal rate divided by the concentration of active sites) stood at 158 s⁻¹.

Source of the values: patent publication US4216142A, “Chromogenic substrates for the proteolytic enzymes” (Abbott Laboratories, priority 1978, dated 1980).
